Among the test systems are HCT-15; EKVX; NCI-H460; UACC-257; SW-620; HCC 2998; Hs-578T; NCI/ADR-RES; MOLT-4; PC-3; ACHN; MDA-N; A498; CAKI-1; SF-539; A549; U-251; UO-31; OVCAR-5; NCI-H23.
Assay in all cases: NCI-60 cell line screen, 48 h

The structures appear in SMILES notation.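 1) Cells in 96-well plates. 2) Compound, 48 h, 5 concentrations. 3) Linear interpolation between surrounding doses. 4) Unreached endpoint = highest concentration. GI50 is the concentration that inhibits growth by half.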 Activity calls are given as the source filed them. No stated cut-off is given here; in the data, active = GI50 up to about 1.1 µM and inactive = higher. A value given as a limit tells only on which side of the number the result lay.

As for `COc1nc(NC2OC(COC(C)=O)C(OC(C)=O)C(OC(C)=O)C2OC(C)=O)c(/N=C/C=N/c2c(NC3OC(COC(C)=O)C(OC(C)=O)C(OC(C)=O)C3OC(C)=O)nc(OC)n(C)c2=O)c(=O)n1C` (stereo not given), the GI50 in the assay with HCT-15 is more than 100 µM; in the assay on EKVX it was > 100 µM (inactive); with NCI-H460 it was > 100 µM (inactive); with UACC-257, > 100 µM (inactive); in the assay with SW-620, > 100 µM (inactive); in the assay on HCC 2998, > 100 µM (inactive). Also, the GI50 with Hs-578T was 28.3 µM (inactive); with NCI/ADR-RES, > 100 µM (inactive); with MOLT-4, > 100 µM (inactive); in the assay with PC-3, > 100 µM (inactive); with ACHN, > 100 µM (inactive); in the assay on MDA-N, > 100 µM (inactive). The GI50 is > 100 µM (inactive) in the assay with A498; > 100 µM (inactive) in the assay on CAKI-1; > 100 µM (inactive) in the assay on SF-539; > 100 µM (inactive) in the assay with A549; 30.5 µM (inactive) in the assay with U-251; > 100 µM (inactive) with UO-31. The GI50 in the assay with OVCAR-5 and with NCI-H23 was > 100 µM (inactive) throughout.

Turning to `CSC(CC(=O)O)C(=O)O` (stereo not given), the GI50 is more than 100 µM in the assay with HCT-15; > 100 µM (inactive) in the assay on EKVX; > 100 µM (inactive) in the assay with NCI-H460; > 100 µM (inactive) in the assay with UACC-257; > 100 µM (inactive) with SW-620; 12.5 µM (inactive) with HCC 2998. In addition, the GI50 in the assay on Hs-578T, with NCI/ADR-RES, with MOLT-4, in the assay with PC-3, with ACHN and in the assay with MDA-N was > 100 µM (inactive) each time. Also, the GI50 in the assay on A498, in the assay on CAKI-1, with SF-539, in the assay on A549, in the assay with U-251 and in the assay on UO-31 was > 100 µM (inactive) in each case. The GI50 with OVCAR-5 and in the assay with NCI-H23 was > 100 µM (inactive) each time.

For the compound `O=[N+]([O-])c1cc2c(c3nonc13)OCCCCO2`, the GI50 in the assay with HCT-15 was 2.94 µM; in the assay on EKVX it was 18.2 µM (inactive); in the assay with NCI-H460, 3.76 µM (inactive); in the assay with UACC-257, 15.5 µM (inactive); in the assay with SW-620, 5.86 µM (inactive); in the assay on HCC 2998, 17.3 µM (inactive). Also, the GI50 in the assay with Hs-578T is 12.3 µM (inactive); in the assay with NCI/ADR-RES it was 10.5 µM (inactive); in the assay on MOLT-4, 3.99 µM (inactive); with PC-3, 14.9 µM (inactive); with ACHN it was 6.22 µM (inactive); in the assay with MDA-N, 4.13 µM (inactive). Besides, the GI50 in the assay with A498 is 24.9 µM (inactive); in the assay with CAKI-1 it was 14.3 µM (inactive); in the assay on SF-539, 2.82 µM (inactive); with A549, 10.3 µM (inactive); with U-251, 7.1 µM (inactive); in the assay with UO-31, 4.19 µM (inactive). The values for the GI50 in the assay on OVCAR-5 and with NCI-H23 were 12.1 µM (inactive) and 10.2 µM (inactive), respectively.

Take `CCOC(=O)CN1C(=O)c2c(c(C)n(-c3ccccc3)c2C)C1=O`: the GI50 is more than 100 µM in the assay with HCT-15; > 100 µM (inactive) with EKVX; > 100 µM (inactive) with NCI-H460; > 100 µM (inactive) with UACC-257; > 100 µM (inactive) in the assay on SW-620; > 100 µM (inactive) with HCC 2998. Besides, the GI50 with Hs-578T, in the assay with NCI/ADR-RES, with MOLT-4, with PC-3, in the assay with ACHN and in the assay on MDA-N was > 100 µM (inactive) each time. Also, the GI50 with A498 was > 100 µM (inactive); with CAKI-1, > 100 µM (inactive); in the assay on SF-539, 91.2 µM (inactive); in the assay on A549, > 100 µM (inactive); in the assay on U-251, 73.5 µM (inactive); in the assay on UO-31 it was > 100 µM (inactive). The GI50 with OVCAR-5 and in the assay on NCI-H23 was > 100 µM (inactive) in each case.

The values are drawn from ChEMBL document CHEMBL1201862, “PubChem BioAssay data set” (2004).
